Test results published in patent US9914730B2, “Azaquinazoline inhibitors of Atypical protein Kinase C” (Ignyta, Inc., priority 2012, dated 2018).

Target: T1, full-length human PKCι (Homo sapiens, UniProt P41743)
T1 construct: Recombinant, full-length human PKCι expressed in Sf21 insect cells is also commercially available; purchased; host or cells: Sf21 insect cells
T1 sequence (P41743 1-596): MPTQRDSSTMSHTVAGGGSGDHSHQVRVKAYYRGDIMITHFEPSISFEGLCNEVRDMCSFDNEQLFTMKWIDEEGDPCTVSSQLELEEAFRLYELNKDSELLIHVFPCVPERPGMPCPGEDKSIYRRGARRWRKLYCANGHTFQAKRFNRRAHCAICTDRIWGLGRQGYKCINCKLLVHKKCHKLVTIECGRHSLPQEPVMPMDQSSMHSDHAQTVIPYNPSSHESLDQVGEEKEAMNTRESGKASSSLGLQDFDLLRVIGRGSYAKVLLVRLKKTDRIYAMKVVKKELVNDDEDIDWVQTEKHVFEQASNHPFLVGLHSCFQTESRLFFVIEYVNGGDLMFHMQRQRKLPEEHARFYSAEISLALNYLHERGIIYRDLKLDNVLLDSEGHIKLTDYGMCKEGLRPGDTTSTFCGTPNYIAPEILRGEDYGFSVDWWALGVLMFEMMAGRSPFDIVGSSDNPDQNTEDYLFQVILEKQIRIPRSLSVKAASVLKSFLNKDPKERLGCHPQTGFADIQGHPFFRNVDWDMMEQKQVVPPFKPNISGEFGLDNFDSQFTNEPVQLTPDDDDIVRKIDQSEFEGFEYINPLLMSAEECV
Assay: PKCι IC50 IMAP assay, full-length PKCι at 150 μM ATP
Type: biochemical
Details: read-out: IC50 in IMAP assay against full length PKCi at 150 μM ATP
Excerpt: Assays are based on the ability of PKCι to phosphorylate a commercially available peptide substrate in vitro. The peptide substrate is FAM-PKCε pseudopeptide derived peptide, and comprises the amino acid sequence 5FAM-[…]-NH2. Recombinant, full-length human PKCι expressed in Sf21 insect cells is also commercially available. Recombinant, kinase-domain human PKCι is expressed and purified in-house.
The procedure below explains how dose response curves for inhibitors of PKCι are obtained. The screen described is for a 384 well format but the assay can be adapted to 1536 or other formats as required.
Compounds to be tested are dissolved in 100% DMSO. Compounds are diluted as required to give a final concentration of 4% DMSO (v/v) in the assay. 1 μl is plated into 384 well black low-binding flat bottomed assay plates which are used immediately. Dilutions and additions of compound to assay plates are carried out using Matrix WellMate® and Matrix PlateMate® Plus liquid handling systems.
On the day of the screen PKCι/substrate working solution, and ATP working solution, are prepared in buffer containing 20 mM tris-HCl pH7.5, 10 mM MgCl2, 0.01% Triton X100, 250 μM EGTA and 1 mM DTT. The final concentration of PKCι used varies depending on the batch of protein but is typically 15 pM. The final concentration of peptide substrate in the assay is 100 nM. ATP is used at a final concentration of 150 μM or 25 μM in the assays containing full-length or kinase-domain PKCι respectively, which corresponds to five times or equal to the KM^APP for ATP for each enzyme, respectively. The final buffer concentration in the assay is 18 mM tris-HCl pH7.5, 9 mM MgCl2, 0.009% Triton X100, 225 μM EGTA and 0.9 mM DTT. Relevant controls are included, namely no compound and no enzyme. 5 μl PKCι/substrate working solution at 30 pM and 200 nM, respectively, is added to the wells, followed by 4 μl ATP working solution at 375 μM or 62.5 μM for full-length or kinase-domain PKCι respectively, using a 16 channel Matrix pipette. The reaction is allowed to incubate for 60 minutes at room temperature, before the reaction is stopped and developed by the addition of 20 μl IMAP™ development reagent (Molecular Devices). IMAP development reagent consists of 0.25% (v/v) IMAP progressive binding reagent, 17% (v/v) IMAP progressive binding buffer A and 3% (v/v) IMAP progressive binding buffer B. The plates are then incubated for 2 hours at room temperature before being read using an appropriate plate reader, for example a Molecular Devices HT Analyst or a BMG Pherastar. Plates are read using a fluorescence polarisation protocol with excitation at 485 nm and emission at 530 nm, and dichroic mirror at 505 nm.
Percentage inhibition values are calculated from fluorescence polarisation values, using the no compound and no enzyme control values as 0% and 100% inhibition, respectively. IC50 determination is performed with ExcelFit software (IDBS) using curve fit 205. Z′ factors are determined for each plate tested and are all above 0.5.

SMILES	IC50 [nM]
COc1cncc2nc(-c3ccnc(Nc4ccccc4)c3)nc(N3CCC(O)C(O)C3)c12 (single isomer, unassigned) [Example 456, (3S,4S)-1-[5-Methoxy-2-(2-phenylamino-pyridin-4-yl)-pyrido[3,4-d]pyrimidin-4-yl]-piperidine-3,4-diol or (3R,4R)-1-[5-Methoxy-2-(2-phenylamino-pyridin-4-yl)-pyrido[3,4-d]pyrimidin-4-yl]-piperidine-3,4-diol]	100 to 1000
COc1cncc2nc(-c3ccnc(Nc4ccccc4)c3)nc(N3CCC(O)C(O)C3)c12 (single isomer, unassigned) [Example 457, (3R,4R)-1-[5-Methoxy-2-(2-phenylamino-pyridin-4-yl)-pyrido[3,4-d]pyrimidin-4-yl]-piperidine-3,4-diol or (3S,4S)-1-[5-Methoxy-2-(2-phenylamino-pyridin-4-yl)-pyrido[3,4-d]pyrimidin-4-yl]-piperidine-3,4-diol]	100 to 1000
COc1cncc2nc(-c3ccnc(Nc4ccccc4)c3)nc(N3CCC(O)C(O)C3)c12 (single isomer, unassigned) [Example 463, (3R,4S)-1-[5-Methoxy-2-(2-phenylamino-pyridin-4-yl)-pyrido[3,4-d]pyrimidin-4-yl]-piperidine-3,4-diol or (3S,4R)-1-[5-Methoxy-2-(2-phenylamino-pyridin-4-yl)-pyrido[3,4-d]pyrimidin-4-yl]-piperidine-3,4-diol]	1000 to 10000
COc1cncc2nc(-c3ccnc(Nc4ccccc4)c3)nc(N3CCC(O)C(O)C3)c12 (single isomer, unassigned) [Example 464, (3S,4R)-1-[5-Methoxy-2-(2-phenylamino-pyridin-4-yl)-pyrido[3,4-d]pyrimidin-4-yl]-piperidine-3,4-diol or (3R,4S)-1-[5-Methoxy-2-(2-phenylamino-pyridin-4-yl)-pyrido[3,4-d]pyrimidin-4-yl]-piperidine-3,4-diol]	100 to 1000
CC(C)(O)C#Cc1nccc2c(NCC(N)Cc3ccccc3)nc(-c3ccncc3)nc12 (stereo in doubt) [Example 131, 4-(4-{[(2S)-2-amino-3-phenylpropyl]amino}-2-(pyridin-4-yl)pyrido[3,4-d]pyrimidin-8-yl)-2-methylbut-3-yn-2-ol]	< 100
c1cc(-c2nc(N3CCNCC3)c3ccncc3n2)ccn1 [Example 1, 1-[2-(pyridin-4-yl)pyrido[3,4-d]pyrimidin-4-yl]piperazine]	100 to 1000
COc1cncc2nc(-c3ccncc3)nc(N[C@@H]3CCNC3)c12 [Example 2, (5-Methoxy-2-pyridin-4-yl-pyrido[3,4-d]pyrimidin-4-yl)-(R)-pyrrolidin-3-yl-amine]	100 to 1000
NCCNc1nc(-c2ccncc2)nc2cnccc12 [Example 3, N-(2-aminoethyl)-2-(pyridin-4-yl)-pyrido[3,4-d]-pyrimidin-4-amine]	10000 to 40000
C[C@@H](N)CNc1nc(-c2ccncc2)nc2cnccc12 [Example 4, N-[(2R)-2-aminopropyl)-2-(pyridin-4-yl)pyrido[3,4-d]-pyrimidin-4-amine]	1000 to 10000
C[C@H](N)CNc1nc(-c2ccncc2)nc2cnccc12 [Example 5, N-[(2S)-2-aminopropyl]-2-(pyridin-4-yl)pyrido[3,4-d]-pyrimidin-4-amine]	10000 to 40000
N[C@H](CNc1nc(-c2ccncc2)nc2cnccc12)Cc1ccccc1 [Example 6, N-[(2S)-2-amino-3-phenylpropyl]-2-(pyridin-4-yl)pyrido[3,4-d]-pyrimidin-4-amine]	< 100
c1cc(-c2nc(N[C@@H]3CCNC3)c3ccncc3n2)ccn1 [Example 7, (3R)-N-[2-(pyridin-4-yl)pyrido[3,4-d]-pyrimidin-4-yl]-pyrrolidin-3-amine]	< 100
Fc1cnccc1-c1nc(N[C@@H]2CCNC2)c2ccncc2n1 [Example 8, (3R)-N-[2-(3-fluoropyridin-4-yl)-pyrido[3,4-d]-pyrimidin-4-yl]-pyrrolidin-3-amine]	100 to 1000
COc1cncc2nc(-c3ccncc3)nc(NC[C@@H](N)Cc3ccccc3)c12 [Example 9, N-[(2S)-2-amino-3-phenylpropyl]-5-methoxy-2-(pyridin-4-yl)pyrido[3,4-d]-pyrimidin-4-amine]	< 100
N[C@H](CNc1nc(-c2ccncc2F)nc2cnccc12)Cc1ccccc1 [Example 10, N-[(2S)-2-amino-3-phenylpropyl]-2-(3-fluoropyridin-4-yl)pyrido[3,4-d]-pyrimidin-4-amine]	100 to 1000

Second part, the molecule after the results:

IC50 [nM]	SMILES
< 100	CN1CCN(c2cccc(Nc3cc(-c4nc(N5CCC(O)C(O)C5)c5c(C6CC6)cncc5n4)ccn3)c2)CC1 (single isomer, unassigned) [Example 751, (3R,4S or 3R,4S)-1-(5-Cyclopropyl-2-{2-[3-(4-methyl-piperazin-1-yl)-phenylamino]-pyridin-4-yl}-pyrido[3,4-d]pyrimidin-4-yl)-piperidine-3,4-diol]
< 100	CN1CCN(c2cccc(Nc3cc(-c4nc(N5CCC(O)C(O)C5)c5c(C6CC6)cncc5n4)ccn3)c2)CC1 (single isomer, unassigned) [Example 752, (3R,4S or 3R,4S)-1-(5-Cyclopropyl-2-{2-[3-(4-methyl-piperazin-1-yl)-phenylamino]-pyridin-4-yl}-pyrido[3,4-d]pyrimidin-4-yl)-piperidine-3,4-diol]
< 100	CN1CCN(c2cccc(Nc3cc(-c4nc(N5CCC(O)C(O)C5)c5c(C6CC6)cncc5n4)ccn3)c2)CC1 (single isomer, unassigned) [Example 753, (3S,4S or 3R,4R)-1-(5-Cyclopropyl-2-{2-[3-(4-methyl-piperazin-1-yl)-phenylamino]-pyridin-4-yl}-pyrido[3,4-d]pyrimidin-4-yl)-piperidine-3,4-diol]
< 100	CN1CCN(c2cccc(Nc3cc(-c4nc(N5CCC(O)C(O)C5)c5c(C6CC6)cncc5n4)ccn3)c2)CC1 (single isomer, unassigned) [Example 754, (3S,4S or 3R,4R)-1-(5-Cyclopropyl-2-{2-[3-(4-methyl-piperazin-1-yl)-phenylamino]-pyridin-4-yl}-pyrido[3,4-d]pyrimidin-4-yl)-piperidine-3,4-diol]
< 100	N#Cc1ccnc(Nc2cc(-c3nc(N4CC[C@H](O)[C@H](O)C4)c4c(C5CC5)cncc4n3)ccn2)c1 (stereo in doubt) [Example 487, 2-{4-[5-Cyclopropyl-4-((3R,4S)-3,4-dihydroxy-piperidin-1-yl)-pyrido[3,4-d]pyrimidin-2-yl]-pyridin-2-ylamino}-isonicotinonitrile]
100 to 1000	N#Cc1ccnc(Nc2cc(-c3nc(N4CC[C@@H](O)[C@@H](O)C4)c4c(C5CC5)cncc4n3)ccn2)c1 (stereo in doubt) [Example 488, 2-{4-[5-Cyclopropyl-4-((3S,4R)-3,4-dihydroxy-piperidin-1-yl)-pyrido[3,4-d]pyrimidin-2-yl]-pyridin-2-ylamino}-isonicotinonitrile]
< 100	FC(F)(F)c1cc2c(-c3nc(NC4CCNC4)c4c(C5CC5)cncc4n3)ccnc2[nH]1 (stereo in doubt) [Example 2069, [5-Cyclopropyl-2-(2-trifluoromethyl-1H-pyrrolo[2,3-b]pyridin-4-yl)-pyrido[3,4-d]pyrimidin-4-yl]-(R)-pyrrolidin-3-yl-amine]
